Consider 6 compounds from patent US9695155B2, “Herbicidal substituted pyrimidinyloxy benzene compounds” (E. I. DU PONT DE NEMOURS AND COMPANY, priority 2013, dated 2017).

One assay relates to Italian ryegrass. Briefly: Test A preemergence. Format: in vivo, Lolium multiflorum. A digest of the protocol:
(§1)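 Pre- and postemergence greenhouse screen. Soil: loam + sand. Spray carrier: solvent mixture, non-phytotoxic, with surfactant. Post timing at 1–2 leaves, height 2–10 cm. Readout: visual injury on a 0–100 scale roughly 10 days after application, untreated plants as reference.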

The test system of another assay is kochia. Nature of the assay: Test A preemergence. Format: in vivo, Kochia scoparia. In a few lines:
as §1

For another assay, the system named is blackgrass. Nature of the assay: Test A postemergence. It counts as in vivo, Alopecurus myosuroides. In a few lines: as §1
A further assay deals with galium. Nature of the assay: Test A postemergence. Format: in vivo, Galium aparine. In a few lines:
as §1

The next assay deals with ragweed. Briefly: Test A preemergence. Format: in vivo, Ambrosia elatior. In a few lines:
as §1

Where [1] appears, read: 125 g ai/ha, 0 to 100 scale where 0 is no effect and 100 is complete control.
[2] abbreviates: 500 g ai/ha, 0 to 100 scale where 0 is no effect and 100 is complete control.
[3] abbreviates: 1000 g ai/ha, 0 to 100 scale, 0 no effect, 100 complete control, approx. 10 days.
Setting [4] is: 1000 g ai/ha, 0 to 100 scale, 0 no effect, 100 complete control.
Where [5] appears, read: 31 g ai/ha, 0 to 100 scale where 0 is no effect and 100 is complete control, visual, approximately 10 days.
Where [6] appears, read: 31 g ai/ha, 0 to 100 scale, 0 no effect, 100 complete control.
Where [7] appears, read: 125 g ai/ha, 0 to 100 scale, 0 no effect, 100 complete control.

Take `Clc1cnc(Oc2cccc(Br)c2-n2cc(I)nn2)nc1` [Compound 117]: in the assay on Italian ryegrass (setting [1]), the “Plant response rating, Ryegrass, Italian” value amounted to 20. The “Ryegrass, Italian plant response rating” value in the assay with Italian ryegrass (setting [2]) is listed as 30. The “Plant response rating, Kochia” value in the assay on kochia (setting [1]) is 70. The “Kochia plant response rating” value with kochia (setting [2]) was 100. The “Plant response rating, Blackgrass” value in the assay on blackgrass (setting [1]) was 40; in the assay with blackgrass (setting [2]), 80. In addition, the “Plant response rating, Galium” value in the assay with galium (setting [1]) and with galium (setting [2]) was 100 in each case. Besides, the “Plant response rating, Ragweed” value in the assay with ragweed (setting [1]) came to 20. In addition, the “Ragweed plant response rating” value in the assay with ragweed (setting [2]) is 60.
As for `FCc1cn(-c2ccccc2Oc2ncc(Cl)cn2)nn1` [Compound 123], the “Ryegrass, Italian plant response rating” value with Italian ryegrass (setting [3]) is 70. The “Kochia plant response rating” value with kochia (setting [3]) is reported as 100. Also, the “Plant response rating, Blackgrass” value in the assay on blackgrass (setting [4]) is reported as 90. Moreover, the “Plant response rating, Galium” value in the assay with galium (setting [4]) came out at 100. Moreover, the “Ragweed plant response rating” value in the assay with ragweed (setting [3]) came to 90.
As to `N#Cc1cnn(-c2c(Br)cccc2Oc2ncc(Cl)cn2)c1` [Compound 140], the “Plant response rating, Ryegrass, Italian” value in the assay on Italian ryegrass (setting [5]) and in the assay on Italian ryegrass (setting [1]) was 0 in each case. The results for the “Plant response rating, Kochia” value in the assay on kochia (setting [5]) and in the assay with kochia (setting [1]) were 60 and 100, respectively. Also, the “Plant response rating, Blackgrass” value with blackgrass (setting [6]) was found to be 30. In the assay with blackgrass (setting [1]), the “Blackgrass plant response rating” value was found to be 70. Further, the “Plant response rating, Galium” value in the assay with galium (setting [6]) is on record as 80. Further, in the assay on galium (setting [1]), the “Galium plant response rating” value worked out at 90. Moreover, the “Plant response rating, Ragweed” value in the assay with ragweed (setting [5]) is 30; with ragweed (setting [1]), 70.
For the compound `FCc1cccc(Oc2ncc(Cl)cn2)c1-n1cc(I)cn1` [Compound 245], the “Plant response rating, Ryegrass, Italian” value with Italian ryegrass (setting [5]) is given as 0. For the same compound, the “Ryegrass, Italian plant response rating (0 to 100 scale)” value with Italian ryegrass (125 g ai/ha) is 0. For the same compound, in the assay with kochia (setting [5]), the “Plant response rating, Kochia” value is given as 0. The “Kochia plant response rating (0 to 100 scale)” value in the assay on kochia (125 g ai/ha) was found to be 30. In addition, the figures for the “Plant response rating, Blackgrass” value in the assay on blackgrass (setting [6]) and with blackgrass (setting [7]) were 30 and 70, respectively. The “Plant response rating, Galium” value with galium (setting [6]) and in the assay with galium (setting [7]) was 100 each time. Besides, in the assay with ragweed (setting [5]), the “Plant response rating, Ragweed” value was 0. For the same compound, the “Ragweed plant response rating (0 to 100 scale)” value in the assay on ragweed (125 g ai/ha) is given as 0.
Regarding `Clc1cnc(Oc2ccccc2-n2cc(C3CC3)nn2)nc1` [Compound 160, 5-chloro-2-[2-(4-cyclopropyl-1H-1,2,3-triazol-1-yl)phenoxy]pyrimidine], the “Ryegrass, Italian plant response rating” value with Italian ryegrass (setting [3]) was found to be 90. The “Kochia plant response rating” value in the assay with kochia (setting [3]) was 100. Further, in the assay on blackgrass (setting [4]), the “Plant response rating, Blackgrass” value turned out to be 100. The “Plant response rating, Galium” value with galium (setting [4]) is 100. Moreover, in the assay on ragweed (setting [3]), the “Ragweed plant response rating” value is 100.
As for `FCc1cccc(Oc2ncc(F)cn2)c1-n1cc(I)cn1` [Compound 152], the “Plant response rating, Ryegrass, Italian” value with Italian ryegrass (setting [5]) and in the assay with Italian ryegrass (setting [1]) was 0 in each case. Moreover, the “Plant response rating, Kochia” value in the assay on kochia (setting [5]) came to 20; in the assay on kochia (setting [1]), 90. Moreover, in the assay on blackgrass (setting [6]), the “Plant response rating, Blackgrass” value is reported as 50. For the same compound, the “Blackgrass plant response rating” value with blackgrass (setting [1]) is reported as 90. In the assay on galium (setting [6]), the “Plant response rating, Galium” value was 90. Further, the “Galium plant response rating” value in the assay with galium (setting [1]) was 90. In addition, the “Plant response rating, Ragweed” value came to 20 in the assay with ragweed (setting [5]) and 40 in the assay on ragweed (setting [1]).
